Assay results reported in PMC9967275, “Screening the Pathogen Box to Discover and Characterize New Cruzain and TbrCatL Inhibitors” (Pathogens, 2023).
Where two headings read alike, the source gives them in different places.

Key:
cruzain = cruzain (Trypanosoma cruzi, UniProt P25779); test: biochemical;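 on Cruzain 0’ Inhibition: at 5 µM compound concentration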;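 on Cruzain 10’ Inhibition: at 5 µM compound concentration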;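 on Cruzain Inhibition 0’: at 5 µM compound concentration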;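 on Cruzain Inhibition 10’: at 5 µM compound concentration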
Chain of cruzain (P25779 123-337 limits assumed): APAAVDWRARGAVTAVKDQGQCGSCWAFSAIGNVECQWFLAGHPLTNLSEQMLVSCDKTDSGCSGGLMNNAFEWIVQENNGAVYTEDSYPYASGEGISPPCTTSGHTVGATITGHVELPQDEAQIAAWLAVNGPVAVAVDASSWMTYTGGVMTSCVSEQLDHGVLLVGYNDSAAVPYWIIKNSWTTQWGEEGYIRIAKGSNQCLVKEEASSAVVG
In short: (§1)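 Recombinant enzymes assayed by Z-Phe-Arg-AMC cleavage at 25 °C, fluorescence 340/440 nm over 5–7 min, with 10 min or no enzyme–compound preincubation.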

TbrCatL = target: T1, TbrCatL (Trypanosoma brucei rhodesiense, UniProt Q95PM0); test: TbrCatL enzymatic inhibition assay (cleavage of fluorogenic substrate Z-FR-AMC); assay type: biochemical; conditions: for TbrCatL 0’ Inhibition / TbrCatL 10’ Inhibition: sheet "Screening results";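 on TbrCatL 0’ Inhibition: at 5 µM compound concentration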;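 on TbrCatL 10’ Inhibition: at 5 µM compound concentration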;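 on TbrCatL Inhibition 0’: at 5 µM compound concentration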;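 on TbrCatL Inhibition 10’: at 5 µM compound concentration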
T1 construct: Conor Caffrey (University of California San Diego)
T1 sequence (Q95PM0 entry or part of it): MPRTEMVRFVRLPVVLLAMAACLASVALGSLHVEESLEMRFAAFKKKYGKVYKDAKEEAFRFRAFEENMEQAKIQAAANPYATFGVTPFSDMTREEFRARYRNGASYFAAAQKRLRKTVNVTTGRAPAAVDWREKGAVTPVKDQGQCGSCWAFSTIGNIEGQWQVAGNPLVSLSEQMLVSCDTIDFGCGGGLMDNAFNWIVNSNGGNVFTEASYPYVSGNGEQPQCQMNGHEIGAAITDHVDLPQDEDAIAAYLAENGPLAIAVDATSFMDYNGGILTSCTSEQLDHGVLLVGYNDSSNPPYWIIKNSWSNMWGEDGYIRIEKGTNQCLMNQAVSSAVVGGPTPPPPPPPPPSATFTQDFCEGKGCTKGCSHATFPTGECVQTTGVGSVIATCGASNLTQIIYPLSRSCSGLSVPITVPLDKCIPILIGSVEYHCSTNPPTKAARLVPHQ
In short: as §1

[1] = 0’ (pre-incubation time), sheet "Screening results"
[2] = 10’ (pre-incubation time), sheet "Screening results"
[3] = 0’ (pre-incubation time), Pathogen Box screening results
[4] = 10’ (pre-incubation time), Pathogen Box screening results
[5] = 0’ (no pre-incubation), sheet Screening results
[6] = 10’ (pre-incubation), sheet Screening results

Compound	Cruzain 0’ Inhibition (cruzain; [1]) [%]	Cruzain 10’ Inhibition (cruzain; [2]) [%]	TbrCatL 0’ Inhibition (TbrCatL; 0’ (pre-incubation time)) [%]	TbrCatL 10’ Inhibition (TbrCatL; 10’ (pre-incubation time)) [%]	other results
c1ccc(Oc2ccc(-c3cncc(-c4ccc5[nH]ccc5c4)n3)cc2)cc1 [MMV688178]	-6	-6	-10	-21	–
Cc1nn(C)c(C)c1NS(=O)(=O)c1c(Cl)cc(-c2ccnc(N3CCNCC3)c2)cc1Cl [MMV688180]	-4	10	-7	28	–
C[C@]1(COc2ccc(N3CCC(Oc4ccc(OC(F)(F)F)cc4)CC3)cc2)Cn2cc([N+](=O)[O-])nc2O1 [MMV688262]	-0.1	-0.4	0.7	-1.4	–
COc1ccc(-c2cnc3cnc(-c4cccc(OC(C)C)c4)cn23)cc1 [MMV688270]	-4	5	-8	-8	–
N=C(N)Nc1ccc(-c2ccc(-c3ccc(NC(=N)N)c(Cl)c3)o2)cc1Cl [MMV688271]	–	–	–	–	inhibition at 5 µM (cruzain; read-out: Cruzain 0’ Inhibition, 0’ (pre-incubation time), sheet "Screening results"): 83%; inhibition at 5 µM (cruzain; read-out: Cruzain 10’ Inhibition, 10’ (pre-incubation time), sheet "Screening results"): 50%; inhibition at 5 µM (cruzain; read-out: Inhibition at 5 µM (Mean ± SEM %) Cruzain 0′, 5 µM, no pre-incubation, initial screening): 83 ± 10%; inhibition at 5 µM (cruzain; read-out: Inhibition at 5 µM (Mean ± SEM %) Cruzain 10′ inc, 5 µM, 10′ pre-incubation, initial screening): 50 ± 4%; inhibition at 5 µM (cruzain; read-out: Inhibition of cruzain or TbrCatL (either enzyme) in the initial screening, 5 µM, either cruzain or TbrCatL, with or without pre-incubation): ≥ 60%; inhibition at 5 µM (TbrCatL; read-out: Inhibition at 5 µM (Mean ± SEM %) TbrCatL 0′): 53 ± 5%; inhibition at 5 µM (TbrCatL; read-out: Inhibition at 5 µM (Mean ± SEM %) TbrCatL 10′ inc): 43 ± 1%; inhibition at 5 µM (TbrCatL; read-out: TbrCatL 0’ Inhibition): 53%; inhibition at 5 µM (TbrCatL; read-out: TbrCatL 10’ Inhibition): 43%
Nc1ccc2ncnc(Nc3ccc(OCc4cccc(F)c4)c(Cl)c3)c2c1 [MMV688273]	–	–	–	–	Cruzain Inhibition 0’ (cruzain; [3]): -11%; Cruzain Inhibition 10’ (cruzain; [4]): -18%; TbrCatL Inhibition 0’ (TbrCatL; [3]): 0.9%; TbrCatL Inhibition 10’ (TbrCatL; [4]): -14%
O=C(CN1CCOCC1)Nc1ccc2ncnc(Nc3ccc(OCc4cccc(F)c4)c(Cl)c3)c2c1 [MMV688274]	5.7	2.4	13	17	–
CC1=Nc2ccc(Cl)cc2C(O)(c2ccc(C)cc2)N1CCN1CCCCC1 (stereo not drawn) [MMV688279]	-4.5	0.1	-3	-5	–
CN1CCN(S(=O)(=O)c2ccc(-c3ccc4c(Nc5ncc(Cl)cn5)ccnc4c3)cc2)CC1 [MMV688283]	–	–	–	–	Cruzain Inhibition 0’ (cruzain; [5]): 30%; Cruzain Inhibition 10’ (cruzain; [6]): 31%; TbrCatL Inhibition 0’ (TbrCatL; [5]): 24%; TbrCatL Inhibition 10’ (TbrCatL; [6]): 18%
COc1ccc(-c2nnc3ccc(-c4cccc(C(C)C)c4)cn23)cc1OC [MMV688313]	-16	-10	-19	-27	–
CC(=O)NC[C@H]1CN(c2ccc(-c3ccc(CNCc4cn[nH]n4)cc3)c(F)c2)C(=O)O1 [MMV688327]	–	–	–	–	Cruzain Inhibition 0’ (cruzain; [5]): -3.5%; Cruzain Inhibition 10’ (cruzain; [6]): 4%; TbrCatL Inhibition 0’ (TbrCatL; [5]): -5.5%; TbrCatL Inhibition 10’ (TbrCatL; [6]): 6.4%
CC(=O)N1CCN(c2ccc(Oc3ccc(Cl)cc3O)cc2)CC1 [MMV688330]	–	–	–	–	Cruzain Inhibition 0’ (cruzain; [3]): -3%; Cruzain Inhibition 10’ (cruzain; [4]): -11%; TbrCatL Inhibition 0’ (TbrCatL; [3]): -8%; TbrCatL Inhibition 10’ (TbrCatL; [4]): -10%
Nc1nc(N)c2c3c(sc2n1)CN(Cc1ccccc1)CC3 [MMV688345]	3.6	16	-1	23	–
COC(=O)c1ccc(F)cc1NS(=O)(=O)c1cccc(-c2cnn(Cc3ccccc3)c2)c1 [MMV688350]	–	–	–	–	Cruzain Inhibition 0’ (cruzain; [5]): -7%; Cruzain Inhibition 10’ (cruzain; [6]): -5%; TbrCatL Inhibition 0’ (TbrCatL; [5]): 2%; TbrCatL Inhibition 10’ (TbrCatL; [6]): -9%
O=C1[C@@H](Oc2ccccc2)[C@@H](c2ccc(Cl)cc2)N1CCn1cnc2c(NCc3ccccc3)ncnc21 [MMV688352]	0	23	5	12	–
COc1ccc(C2=NN(C3CCCCCC3)C(=O)C2(C)C)cc1OCc1ccccn1 [MMV688360]	–	–	–	–	Cruzain Inhibition 0’ (cruzain; [5]): 14%; Cruzain Inhibition 10’ (cruzain; [6]): 11%; TbrCatL Inhibition 0’ (TbrCatL; [5]): 13%; TbrCatL Inhibition 10’ (TbrCatL; [6]): 16%

Compound	Cruzain 0’ Inhibition (cruzain; [1]) [%]	Cruzain 10’ Inhibition (cruzain; [2]) [%]	TbrCatL 0’ Inhibition (TbrCatL; 0’ (pre-incubation time)) [%]	TbrCatL 10’ Inhibition (TbrCatL; 10’ (pre-incubation time)) [%]	other results
c1cc(C2=NCCN2)cc(-c2cc(-c3ccc(C4=NCCN4)cc3)no2)c1 [MMV688361]	4.5	7.4	1.9	-3.5	–
CC(C)(C)OC(=O)N1CCC(Cn2nc(-c3cnc4ccccc4c3)c3c(N)ncnc32)CC1 [MMV688364]	-14	0	-10	-15	–
NCCN(C(=O)c1ccc(Cl)cc1Cl)c1ccc(OCc2ccc(Cl)cc2)cc1 [MMV688371]	–	–	–	–	Cruzain Inhibition 0’ (cruzain; [5]): 9%; Cruzain Inhibition 10’ (cruzain; [6]): 12%; TbrCatL Inhibition 0’ (TbrCatL; [5]): 6%; TbrCatL Inhibition 10’ (TbrCatL; [6]): 1%
O=C(Nc1ccc(F)c(-c2nc3ncc(-c4ccccc4)cc3[nH]2)c1)N1CCCC1 [MMV688372]	4	4.3	-5	-11	–
COc1cc(C2=NCCN2)ccc1-c1cn(-c2cccc(C3=NCCN3)c2)nn1 [MMV688407]	2.2	21	14	36	–
CC1=Nc2ccc(Cl)cc2C(c2ccccc2)N1CCNC(=O)CN(C)C (stereo not drawn) [MMV688410]	-0.5	3.8	-4.7	-3.5	–
Nc1ncnc2c1c(-c1cnc3ccccc3c1)nn2CC1CCNCC1 [MMV688411]	-0.3	5.5	1.7	3.7	–
CO[C@@H]1CN(c2ccc(C#CC3(O)CN4CCC3CC4)c(Cc3ccccc3)n2)C[C@H]1O (stereo partly drawn) [MMV688415]	–	–	–	–	Cruzain Inhibition 0’ (cruzain; [3]): -4%; Cruzain Inhibition 10’ (cruzain; [4]): 16%; TbrCatL Inhibition 0’ (TbrCatL; [3]): -8%; TbrCatL Inhibition 10’ (TbrCatL; [4]): 3%
CC(C)(C)OC(=O)N1CCN(c2nccc(-c3ccc(-c4ccc(Cl)cc4)s3)n2)CC1 [MMV688416]	–	–	–	–	Cruzain Inhibition 0’ (cruzain; [5]): 18%; Cruzain Inhibition 10’ (cruzain; [6]): 18%; TbrCatL Inhibition 0’ (TbrCatL; [5]): 22%; TbrCatL Inhibition 10’ (TbrCatL; [6]): 27%
CC(C)n1nc(-c2cc3c(Cl)cccc3[nH]2)c2c(N)ncnc21 [MMV688417]	5.6	-1.4	-11	-13	–
CCCCN(CCCC)c1c(C#N)cc(S(=O)(=O)Nc2ccccc2)cc1C#N [MMV688467]	-2.2	1.8	-4.5	8	–
Nc1ncnc2n[nH]c(Cc3cccc4ccccc34)c12 [MMV688469]	-9	4.5	-8	-1.7	–
CS(=O)(=O)N1CCC(CCn2nc(Cc3cccc4ccccc34)c3c(N)ncnc32)CC1 [MMV688470]	–	–	–	–	Cruzain Inhibition 0’ (cruzain; [5]): 10%; Cruzain Inhibition 10’ (cruzain; [6]): 11%; TbrCatL Inhibition 0’ (TbrCatL; [5]): 14%; TbrCatL Inhibition 10’ (TbrCatL; [6]): 9%
CC(C(=O)Nc1ccc2oc(-c3ccncc3)nc2c1)c1ccccc1 (stereo not drawn) [MMV688471]	–	–	–	–	Cruzain Inhibition 0’ (cruzain; [5]): 19%; Cruzain Inhibition 10’ (cruzain; [6]): 15%; TbrCatL Inhibition 0’ (TbrCatL; [5]): 26%; TbrCatL Inhibition 10’ (TbrCatL; [6]): 20%
CC(Oc1cccc(Cl)c1)C(=O)Nc1ccc2oc(-c3ccncc3)nc2c1 (stereo not drawn) [MMV688472]	–	–	–	–	Cruzain Inhibition 0’ (cruzain; [5]): 17%; Cruzain Inhibition 10’ (cruzain; [6]): 14%; TbrCatL Inhibition 0’ (TbrCatL; [5]): 13%; TbrCatL Inhibition 10’ (TbrCatL; [6]): 14%
